Read-outs that look alike come from different tables or passages of the source.
Assays:
[1] = test system: 5-HT1A receptor; conditions: Fozard et al. 1987, cited from earlier work
[2] = test system: mouse locomotor activity; experiment: Reduction of mouse locomotor activity (hypolocomotion; Martin and Bendensky); assay type: in vivo, mice (male, CF-1); conditions: ip, horizontal activity counts 10 to 20 minutes after dosing
Procedure: The antipsychotic activity of the compounds of the invention was further established by a determination of the compounds' ability to reduce mouse locomotor activity according to the method of Martin and Bendensky, J. Pharmacol. Exp. Therap. 229:706-711, 1984, in which mice (male, CF-1, Charles River, 20-30 g) were injected with vehicle or various doses of each drug and locomotor activity was measured for 30 minutes using automated infrared activity monitors (Omnitech--8×8 inch open field) located in a darkened room. ED50 's were calculated from the horizontal activity counts collected from 10 to 20 minutes after dosing using a nonlinear regression analysis with inverse prediction.

[3] = target: T1, dopamine D2 receptor (Rattus norvegicus, UniProt P61169); experiment: Affinity for dopamine D2 receptor (3H-quinpirole, rat striatal homogenate); assay type: binding; conditions: rat striatal brain tissue
T1 construct: homogenized rat striatal brain tissue; from tissue; host or cells: rat striatum (homogenized brain tissue)
T1 sequence (P61169 whole entry): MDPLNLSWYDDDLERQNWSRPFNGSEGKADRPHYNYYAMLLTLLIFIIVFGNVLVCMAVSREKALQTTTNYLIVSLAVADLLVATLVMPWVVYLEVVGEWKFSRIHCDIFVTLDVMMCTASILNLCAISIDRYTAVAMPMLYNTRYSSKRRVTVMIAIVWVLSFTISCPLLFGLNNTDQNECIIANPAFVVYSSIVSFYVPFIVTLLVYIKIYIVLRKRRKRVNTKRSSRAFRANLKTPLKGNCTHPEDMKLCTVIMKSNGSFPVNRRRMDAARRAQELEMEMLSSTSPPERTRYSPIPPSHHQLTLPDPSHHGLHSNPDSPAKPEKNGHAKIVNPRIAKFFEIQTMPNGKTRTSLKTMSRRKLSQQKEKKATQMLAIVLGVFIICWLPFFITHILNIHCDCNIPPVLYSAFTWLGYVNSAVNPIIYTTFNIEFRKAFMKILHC
Procedure: Affinity for the dopamine D2 receptor was established by a modification of the standard experimental test procedure of Seemen and Schaus, European Journal of Pharmacology 203: 105-109, 1991, wherein homogenized rat striatal brain tissue is incubated with ^3 H-quinpirole and various concentrations of test compound, filtered and washed and counted in a Betaplate scintillation counter.

[4] = test system: synthesis of dopamine; experiment: Effect on dopamine synthesis: inhibition of dopa accumulation in GBL/NSD-1015-treated rats (Walters and Roth); assay type: in vivo, rats (male, Sprague-Dawley); conditions: Rattus norvegicus, sc, read-out: Dopa Accumulation (% inhib. @ 10 mg/kg, sc)
Procedure: The effect of the compounds of the invention on the synthesis of dopamine was established by the method of Walters and Roth, Naunyn-Schmiedeberg's Arch. Pharmacol. 296:5-14, 1976, in which rats (male, Sprague-Dawley, Charles River, 200-350 g) were administered vehicle or test drug ten minutes prior to the administration of gamma butyrolactone (GBL; 750 mg/kg, ip to inhibit dopaminergic impulse flow) and 20 minutes prior to NSD-1015 (100 mg/kg, ip to prevent the conversion of dopa to dopamine). Thirty minutes after NSD-1015 all rats were decapitated and the nucleus accumbens and the striatum were removed for analysis. Following perchloric acid extraction of the tissue, the extracts were placed over alumina columns to collect and concentrate dopa and other catechols. This eluate was then subjected to HPLC analysis using electrochemical detection to quantify the levels of dopa present. Dopamine autoreceptor agonists, under the conditions used above, inhibit dopa accumulation.

Compound | inhibition at 0.1 µM [3] | ED50 [2] | inhibition at 10 mg/kg ([4]; limbic (L) brain tissue) | also measured
O=C1CC2(CCCC2)CC(=O)N1CCCCNCC1COc2ccccc2O1 (single isomer, unassigned; (-)) [(-)-MDL 72832] | – | – | – | binding at the 5-HT1A receptor site relative to the dextrorotary isomer (times as much) ([1]; (-)-isomer vs dextrorotary isomer): 32 times
c1cnc2cc(OCCCNCC3COc4cc5c(cc4O3)OCO5)ccc2c1 (centres unmarked) [Example 2, N-[3-(Quinolin-7-yloxy)propyl]-2,3-dihydro-6,7-methylenedioxy-1,4-benzodioxin-2-methanamine] | – | 3 mg/kg | 60.4% | IC50 [3]: 63 nM
O=C1CC2(CCCC2)CC(=O)N1CCCCNCC1COc2ccccc2O1 (centres unmarked) [MDL 72832, 8-[4-(1,4-benzodioxan-2-ylmethylamino)butyl]-8-azaspiro[4.5]decane-7,9-dione] | – | – | – | ligand for 5-HT1A receptors (in words) [1]: selective and stereospecific
c1ccc2c(c1)OCC(CNCCCOc1ccc3cccnc3c1)O2 (centres unmarked) [Example 1, N-[3-(Quinolin-7-yloxy)propyl]-2,3-dihydro-1,4-benzodioxin-2-methanamine] | – | – | 29% | inhibition at 10 mg/kg ([4]; striatal (S) brain tissue): 44%

Second part, led by results:

inhibition at 0.1 µM [3] | Compound | ED50 [2] | inhibition at 10 mg/kg ([4]; limbic (L) brain tissue) | also measured
25% | c1cc(OCCCNCC2COc3cc4c(cc3O2)OCO4)c2cccnc2c1 (centres unmarked) [Example 3, N-[3-(Quinolin-5-yloxy)propyl]-2,3-dihydro-6,7-methylenedioxy-1,4-benzodioxin-2-methanamine] | 12.6 mg/kg | 42.6% | –
55% | COc1ccc2c(c1)OC(CNCCCOc1ccc3cccnc3c1)CO2 (centres unmarked) [Example 4, N-[3-(Quinolin-7-yloxy)propyl]-2,3-dihydro-7-methoxy-1,4-benzodioxin-2-methanamine] | – | – | –

— US5235055A, “Antipsychotic quinoline derivatives of benzodioxanmethylamine” (American Home Products Corporation, priority 1992, dated 1993)
